In paper PMC6366416, “Synthesis and in vitro anticancer activity of certain novel 1-(2-methyl-6-arylpyridin-3-yl)-3-phenylureas as apoptosis-inducing agents” (Journal of Enzyme Inhibition and Medicinal Chemistry, 2019):

Key:
Assay in all cases: NCI one-dose SRB growth inhibition
Type in all cases: cell-based
[1] = system: SK-MEL-28; details: Homo sapiens, Melanoma, 48 h, read-out: GI% SK-MEL-28
Outline: (§1)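 NCI DTP screen; 48 h drug exposure; SRB read-out of cell growth/viability; nine-tumour-type panel.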

[2] = system: DU-145; details: Homo sapiens, Prostate, 48 h, read-out: GI% DU-145
Outline: as §1

[3] = system: COLO 205; details: Homo sapiens, Colon Cancer, 48 h, read-out: GI% COLO 205
Outline: as §1

[4] = system: KM12; details: Homo sapiens, Colon Cancer, 48 h, read-out: GI% KM12
Outline: as §1

[5] = system: NCI-H460; details: Homo sapiens, Non-Small Cell Lung Cancer, 48 h, read-out: GI% NCI-H460
Outline: as §1

[6] = system: NCI/ADR-RES; details: Homo sapiens, Ovarian Cancer, 48 h, read-out: GI% NCI/ADR-RES
Outline: as §1

[7] = system: SF-268; details: Homo sapiens, CNS Cancer, 48 h, read-out: GI% SF-268
Outline: as §1

[8] = system: HS 578T; details: Homo sapiens, Breast Cancer, 48 h, read-out: GI% HS 578T
Outline: as §1

[9] = system: HT29; details: Homo sapiens, HT-29, 48 h, Colon Cancer, read-out: GI% HT29
Outline: as §1

[10] = system: TK-10; details: Homo sapiens, Renal Cancer, 48 h, read-out: GI% TK-10
Outline: as §1

[11] = system: NCI-H226; details: Homo sapiens, Non-Small Cell Lung Cancer, 48 h, read-out: GI% NCI-H226
Outline: as §1

[12] = system: NCI-H522; details: Homo sapiens, NCI-H522, 48 h, Non-Small Cell Lung Cancer, read-out: GI% NCI-H522
Outline: as §1

[13] = system: UACC-257; details: Homo sapiens, UACC-257, read-out: GI% UACC-257, Melanoma, 48 h
Outline: as §1

[14] = system: SNB-19; details: Homo sapiens, CNS Cancer, 48 h, read-out: GI% SNB-19
Outline: as §1

[15] = system: A498; details: Homo sapiens, Renal Cancer, 48 h, read-out: GI% A498
Outline: as §1

[16] = system: SF-539; details: Homo sapiens, CNS Cancer, 48 h, read-out: GI% SF-539
Outline: as §1

[17] = system: MOLT-4; details: Homo sapiens, Leukemia, 48 h, read-out: GI% MOLT-4
Outline: as §1

[18] = system: SNB-75; details: Homo sapiens, CNS Cancer, 48 h, read-out: GI% SNB-75
Outline: as §1

[19] = system: HOP-92; details: Homo sapiens, Non-Small Cell Lung Cancer, 48 h, read-out: GI% HOP-92
Outline: as §1

[20] = system: OVCAR-8; details: Homo sapiens, Ovarian Cancer, 48 h, read-out: GI% OVCAR-8
Outline: as §1

[21] = system: HL-60(TB); details: Homo sapiens, Leukemia, 48 h, read-out: GI% HL-60(TB)
Outline: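 Per NCI guidelines: treat cells 48 h, then stain with SRB to assess growth and viability.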

[22] = system: RXF 393; details: Homo sapiens, Renal Cancer, 48 h, read-out: GI% RXF 393
Outline: as §1

[23] = system: NCI-H322M; details: Homo sapiens, Non-Small Cell Lung Cancer, 48 h, read-out: GI% NCI-H322M
Outline: as §1

[24] = system: SW-620; details: Homo sapiens, Colon Cancer, 48 h, read-out: GI% SW-620
Outline: as §1

[25] = system: MALME-3M; details: Homo sapiens, Melanoma, 48 h, read-out: GI% MALME-3M
Outline: as §1

[26] = system: 786-0; details: Homo sapiens, Renal Cancer, 48 h, read-out: GI% 786-0
Outline: as §1

[27] = system: HCT-15; details: Homo sapiens, HCT-15, 48 h, Colon Cancer, read-out: GI% HCT-15
Outline: as §1

[28] = system: NCI-H23; details: Homo sapiens, Non-Small Cell Lung Cancer, 48 h, read-out: GI% NCI-H23
Outline: as §1

[29] = system: OVCAR-4; details: Homo sapiens, Ovarian Cancer, 48 h, read-out: GI% OVCAR-4
Outline: as §1

[30] = system: CCRF-CEM; details: Homo sapiens, Leukemia, 48 h, read-out: GI% CCRF-CEM
Outline: as §1

[31] = system: SF-295; details: Homo sapiens, CNS Cancer, 48 h, read-out: GI% SF-295
Outline: as §1

[32] = system: MDA-MB-435; details: Homo sapiens, Melanoma, 48 h, read-out: GI% MDA-MB-435
Outline: as §1

[33] = system: SK-MEL-2; details: Homo sapiens, Melanoma, 48 h, read-out: GI% SK-MEL-2
Outline: as §1

`CCOC(=O)c1ccc(NC(=O)Nc2ccc(-c3cccs3)nc2C)cc1` [Compound 5j, Ethyl 4-(3-(2-methyl-6-(thiophen-2-yl)pyridin-3-yl)ureido)benzoate] showed an inhibition at 10 µM [1] of less than 10%, an inhibition at 10 µM [2] of less than 10% and an inhibition at 10 µM [3] of less than 10%. For the same compound, the inhibition at 10 µM [4] was 18%, the inhibition at 10 µM [5] was 43% and the inhibition at 10 µM [6] was less than 10%. The inhibition at 10 µM [7] was less than 10%, the inhibition at 10 µM [8] was less than 10% and the inhibition at 10 µM [9] was 19%. For the same compound, the inhibition at 10 µM [10] was less than 10%, the inhibition at 10 µM [11] was less than 10% and the inhibition at 10 µM [12] was 52%. The inhibition at 10 µM [13] was less than 10%, the inhibition at 10 µM [14] was less than 10% and the inhibition at 10 µM [15] was less than 10%. It also gave an inhibition at 10 µM [16] of less than 10%, an inhibition at 10 µM [17] of 44% and an inhibition at 10 µM [18] of less than 10%. The inhibition at 10 µM [19] was less than 10%, the inhibition at 10 µM [20] was less than 10% and the inhibition at 10 µM [21] was 10%. The inhibition at 10 µM [22] was less than 10%, the inhibition at 10 µM [23] was 17% and the inhibition at 10 µM [24] was less than 10%. The inhibition at 10 µM [25] was less than 10%, the inhibition at 10 µM [26] was 12% and the inhibition at 10 µM [27] was 30%. For the same compound, the inhibition at 10 µM [28] was less than 10%, the inhibition at 10 µM [29] was less than 10% and the inhibition at 10 µM [30] was 50%. The inhibition at 10 µM [31] was less than 10%, the inhibition at 10 µM [32] was less than 10% and the inhibition at 10 µM [33] was 11%.
